Biological target: T1, Glycylpeptide N-tetradecanoyltransferase (Candida albicans (strain SC5314 / ATCC MYA-2876) (Yeast), UniProt P30418)
T1 sequence (P30418 whole entry): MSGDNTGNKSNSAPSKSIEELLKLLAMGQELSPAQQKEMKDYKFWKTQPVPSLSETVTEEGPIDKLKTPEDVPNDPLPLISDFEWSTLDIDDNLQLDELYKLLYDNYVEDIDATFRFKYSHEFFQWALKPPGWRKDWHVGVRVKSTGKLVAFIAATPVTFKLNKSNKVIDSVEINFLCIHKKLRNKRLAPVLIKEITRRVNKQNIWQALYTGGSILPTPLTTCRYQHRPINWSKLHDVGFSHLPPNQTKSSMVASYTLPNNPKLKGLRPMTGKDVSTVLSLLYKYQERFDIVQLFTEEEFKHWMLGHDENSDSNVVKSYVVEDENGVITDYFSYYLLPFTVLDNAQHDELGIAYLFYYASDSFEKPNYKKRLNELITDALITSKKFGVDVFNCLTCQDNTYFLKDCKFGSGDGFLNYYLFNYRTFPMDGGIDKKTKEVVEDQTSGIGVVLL
Assay: Inhibition of Candida albicans N-myristoyltransferse

| IC50 [nM] | SMILES |
| --- | --- |
| 0.39 | Cc1ccc(C(=O)c2oc3cccc(OCCCNCc4cccnc4)c3c2C)nc1 |
| > 10000 | O=C(NCc1ccc(CNCc2ccc3ccccc3c2)cc1)c1ccc2nc(NC(=O)C3CCCCC3)sc2c1 |
| 65 | O=C(Nc1nc2ccc(C(=O)N3CC(NCc4ccc5ccccc5c4)C3)cc2s1)C1CCCCC1 |
| 190 | O=C(Nc1nc2ccc(C(=O)N3CCC(NCc4ccc5ccccc5c4)C3)cc2s1)C1CCCCC1 (stereo unspecified) |
| 500 | O=C(Nc1nc2ccc(C(=O)N3CCC(NCc4ccc5ccccc5c4)CC3)cc2s1)C1CCCCC1 |
| 1900 | O=C(NCc1cccc(CNCc2ccc3ccccc3c2)c1)c1ccc2nc(NC(=O)C3CCCCC3)sc2c1 |
| 26 | O=C(Nc1nc2ccc(C(=O)N3CCC(CNCc4ccc5ccccc5c4)CC3)cc2s1)C1CCCCC1 |
| 210 | O=C(Nc1nc2ccc(C(=O)N3CCCC(NCc4ccc5ccccc5c4)C3)cc2s1)C1CCCCC1 (stereo unspecified) |
| 2300 | O=C(CNCc1ccc2ccccc2c1)Nc1ccc2nc(NC(=O)C3CCCCC3)sc2c1 |
| > 10000 | O=C(NCCNCc1ccc2ccccc2c1)c1ccc2ncsc2c1 |
| > 10000 | Nc1nc2ccc(C(=O)NCCNCc3ccc4ccccc4c3)cc2s1 |
| > 10000 | O=C(NCCNCc1ccc2ccccc2c1)c1ccc2nc(NCc3ccccc3)sc2c1 |
| > 10000 | O=C(NCCNCc1ccc2ccccc2c1)c1ccc2nc(NCc3ccccn3)sc2c1 |
| > 1000 | O=C(NCCNCc1ccc2ccccc2c1)c1ccc2nc(NCC3CCCCC3)sc2c1 |
| > 10000 | CC(=O)Nc1nc2ccc(C(=O)NCCNCc3ccc4ccccc4c3)cc2s1 |
| 130 | CCC(=O)Nc1nc2ccc(C(=O)NCCNCc3ccc4ccccc4c3)cc2s1 |
| 46 | CC(C)C(=O)Nc1nc2ccc(C(=O)NCCNCc3ccc4ccccc4c3)cc2s1 |
| 23 | O=C(NCCNCc1ccc2ccccc2c1)c1ccc2nc(NC(=O)C3CCCC3)sc2c1 |
| 890 | O=C(NCCNCc1ccc2ccccc2c1)c1ccc2nc(NC(=O)C3CCOCC3)sc2c1 |
| > 10000 | O=C(NCCNCc1ccc2ccccc2c1)c1ccc2nc(NC(=O)C3CCNCC3)sc2c1 |
| 160 | O=C(NCCNCc1ccc2ccccc2c1)c1ccc2nc(NC(=O)c3ccccc3)sc2c1 |
| > 10000 | O=C(NCCNCc1ccc2ccccc2c1)c1ccc2nc(NC(=O)c3ccccn3)sc2c1 |
| 730 | O=C(NCCNCc1ccc2ccccc2c1)c1ccc2nc(NC(=O)c3cnccn3)sc2c1 |

| IC50 [nM] | SMILES |
| --- | --- |
| 34 | O=C(NCCNCc1ccc2ccccc2c1)c1ccc2nc(NC(=O)C3CCCCC3)sc2c1 |
| 110 | O=C(NCCCNCc1ccc2ccccc2c1)c1ccc2nc(NC(=O)C3CCCCC3)sc2c1 |
| 74 | O=C(NCCCCNCc1ccc2ccccc2c1)c1ccc2nc(NC(=O)C3CCCCC3)sc2c1 |
| > 10000 | O=C(NCCNCc1ccc2ccccc2c1)c1ccc2nc(NC(=O)c3ccc(Cl)cc3)sc2c1 |
| > 10000 | O=C(NCCNCc1ccc2ccccc2c1)c1ccc2nc(NC(=O)c3ccc(Cl)c(Cl)c3)sc2c1 |
| > 10000 | O=C(NCCNCc1ccc2ccccc2c1)c1ccc2nc(NC(=O)c3ccc(C(F)(F)F)cc3)sc2c1 |
| 310 | COc1ccc(OC)c(C(=O)Nc2nc3ccc(C(=O)NCCNCc4ccc5ccccc5c4)cc3s2)c1 |
| 160 | O=C(CCNCc1ccc(-c2ccccc2)cc1)Nc1ccc2nc(NC(=O)C3CCCC3)sc2c1 |
| 11 | O=C(Nc1nc2ccc(NC(=O)[C@@H]3CC[C@H](NCc4ccc5ccccc5c4)C3)cc2s1)C1CCCC1 |
| 130 | O=C(Nc1ccc2nc(NC(=O)C3CCCC3)sc2c1)C1CCCC(NCc2ccc(-c3ccccc3)cc2)C1 (stereo unspecified) |
| 0.49 | O=C(Nc1nc2ccc(NC(=O)[C@H]3CCC[C@@H](NCc4ccc5ccccc5c4)C3)cc2s1)C1CCCC1 |
| 3.3 | CC(C)C(=O)Nc1nc2ccc(NC(=O)C3CCCC(NCc4ccc5ccccc5c4)C3)cc2s1 (stereo unspecified) |
| 2.3 | O=C(Nc1ccc2nc(NC(=O)C3CCC3)sc2c1)C1CCCC(NCc2ccc3ccccc3c2)C1 (stereo unspecified) |
| 34 | O=C(Nc1ccc2nc(NC(=O)C3CCCC3)sc2c1)C1CCC(NCc2ccc3ccccc3c2)CC1 (stereo unspecified) |
| 5.7 | Cc1c(COc2ccc(F)c(F)c2F)oc2cccc(OCCCNCc3cccnc3)c12 |
| > 10000 | O=C(NCCNCc1ccc2ccccc2c1)c1ccc2nc(NC(=O)c3cccnc3Cl)sc2c1 |
| 15 | O=C(CCCNCc1ccc2ccccc2c1)Nc1ccc2nc(NC(=O)C3CCCC3)sc2c1 |
| 2.4 | O=C(Nc1ccc2nc(NC(=O)C3CC3)sc2c1)C1CCCC(NCc2ccc3ccccc3c2)C1 (stereo unspecified) |
| 8.1 | O=C(Nc1ccc2nc(NC(=O)C3CCCCC3)sc2c1)C1CCCC(NCc2ccc3ccccc3c2)C1 (stereo unspecified) |
| > 10000 | CC(C)(C)OC(=O)Nc1nc2ccc(C(=O)NCCNCc3ccc4ccccc4c3)cc2s1 |
| 28 | O=C(NCCNCc1ccc2ccccc2c1)c1ccc2nc(NC(=O)C3CCC3)sc2c1 |
| 300 | O=C(NCCCCCNCc1ccc2ccccc2c1)c1ccc2nc(NC(=O)C3CCCCC3)sc2c1 |
| 1700 | CCOC(=O)c1oc2cccc(OCCCNC(C)(C)C)c2c1C |
